# Experimental data from patent US20230099204A1, “PHARMACEUTICAL COMPOSITION FOR PREVENTION OR TREATMENT OF CANCER IN WHICH KRAS MUTATION AND ACTIVATED RON ARE PRESENT” (WELLMARKER BIO CO., LTD., priority 2020, published 2023).
# Columns and labels:
# SNUC2A = test: MTS assay, cytotoxicity on colorectal cancer cell line SNUC2A; format: cell-based; details: RON mutation negative, KRAS G12D, 72 hours
# Method: (§1) MTS assay was performed to compare cytotoxicity of the compounds of Example 1, Example 2, Example 3, Example 4, Example 5, Example 6, and positive control 1 on a colorectal cancer cell line, and a cell death rate of the colorectal cancer cell line was analyzed to compare anticancer activity of the compounds.
# (§2) The MTS assay was performed by seeding each colorectal cell line in a 96-well plate at 1,000 cells per well, and after 24 hours, performing treatment with the compounds of Examples 1 to 6 and positive control 1 at various concentrations (0.000001 μM to 10 μM) in 100 μL of 10% FBS-RPMI medium (WELGENE Inc.) per well. The cells were incubated for 72 hours. Then, 20 μL of MTS solution (Promega) was added thereto, and the cells were incubated for 2 hours. Then, the absorbance was measured at 490 nm. The IC50 values for the compounds of Examples 1 to 6 and positive control 1 were calculated using GraphPad Prism™ 5 to investigate cytotoxicity.
# HCT8 [1] = test: MTS assay, cytotoxicity on colorectal cancer cell line HCT8; format: cell-based; details: Homo sapiens, HCT-8, RON wt, KRAS G13D, 72 hours
# Method: as §1, §2
# DLD1 = test: MTS assay, cytotoxicity on colorectal cancer cell line DLD1; format: cell-based; details: Homo sapiens, DLD-1, RON wt, KRAS G13D, 72 hours
# Method: as §1, §2
# HCT8 [2] = test: Cell death induction, trypan blue cell counting, HCT8; format: cell-based, human; details: HCT8 (pTyr-wtRON); 1 μM; 48 hours; FIG. 1
# Method: (§3) Based on the results above, to identify the cell death-inducing ability of the compounds of Example 1 and positive control 1, which are representative materials, preparation was performed by seeding respective colorectal cancer cell lines SNU-[…], HCT8, T84, and SW620 onto 60-mm plates at 3×10^5 cells, and then incubation was performed for 24 hours. Thereafter, treatment with each of Example 1 and positive control 1 was performed at 1μM and incubation was performed for 48 hours. After 48 hours, the cells and cell suspensions were collected by treatment with trypsin, resuspended in 1× PBS and stained using a trypan blue solution (Sigma, cat# T8154). The stained cells were counted using a hemocytometer. Cell counting was repeated, and the mean and the standard deviation were calculated.
# SW620 = test: Cell death induction, trypan blue cell counting, SW620; format: cell-based, human; details: 1 μM, 48 hours
# Method: as §3, with “48 hours. In addition, preparation was performed by seeding the cell line SW620 onto a 60-mm plate at 3×10^5 cells, and then incubation was performed for 24 hours. Thereafter, treatment with each of Example 1, positive control 1, positive control 2, and positive control 3 was performed at 1 μM. After 48” for “48 hours. After 48”
# [3] = system: colorectal cancer patient-derived cell lines; test: Cell death induction (cleaved caspase 3 staining) in colorectal cancer patient-derived cell lines; format: cell-based, human; details: 1 μM, FIG. 4
smiles,measurement,setting,value
"CCOc1ccn(-c2ccc(F)cc2)c(=O)c1C(=O)Nc1ccc(Oc2ccnc3cc(-c4ccc(CN5CCOCC5)cn4)sc23)c(F)c1.Cl [Example 1, 4-ethoxy-N-[3-fluoro-4-({2-[5-(morpholinomethyl)pyridine-2-yl]thieno[3,2-b]pyridine-7-yl}oxy)phenyl]-1-(4-fluorophenyl)-2-oxo-1,2-dihydropyridine-3-carboxamide hydrochloride]",IC50,SNUC2A,5780 nM
same,IC50,HCT8 [1],420 nM
same,IC50,DLD1,240 nM
same,cell death induction efficacy,HCT8 [2],cell-killing efficacy was exhibited
same,cell death rate,"SW620; SW620 (KRAS G12V/mRON Δ155), FIG. 2",high cell death rate
same,cell death induction efficacy,"SW620; SW620 with a RON mutation, FIG. 1",cell death induction efficacy was exhibited regardless of mutation type
same,cell death induction efficacy,[3]; patient-derived cell line expressing a RON mutation or pTyr-wtRON,exhibited cell death induction efficacy
same,cell death induction efficacy,[3]; patient-derived cell line with inactive RON,did not exhibit cell death induction efficacy
